Source: patent US20240109893A1, “PREPARATION AND APPLICATION METHOD OF HETEROCYCLIC COMPOUNDS AS KRAS INHIBITOR” (SHANGHAI KECHOW PHARMA, INC., priority 2020, published 2024)

These compounds were tested on H358 cells (assay: Cell activity experiment: activity test of H358 cells (MTT, 5 days)). Conditions: 5 days incubation, absorbance 492 nm.
Type: cell-based
Description: Example: Cell Activity Experiment
1. Cells: H358 purchased from Shanghai EK-Bioscience Biotechnology Co., Ltd.
2. Reagents: RPMI 1640 medium, Tryple, MTT (5 mg/mL), DMSO, and DPBS.
3. Instruments: an incubator at 37° C. and 5% CO2, a UTRAO microplate reader, a biosafety cabinet, a cell counting plate, and an Optec optical microscope.
4. Experimental consumables: 96-well plate Item No.: 3599, and 96-well round-bottomed dispensing plate.
Experimental Steps of Activity Test of H358 Cells:
1. Plating: Cells in the logarithmic growth phase were digested with Tryple and terminated with a fresh medium, and the cells were counted; and the cell concentration was adjusted to 55555 cells/mL with a fresh medium, wherein 90 μL was added to each well, and those on edges were filled with sterile DPBS.
2. The plate was incubated in the incubator at 37° C. and 5% CO2 for 24 h, so that the cells cover the bottom of the well by about 50%.
3. Drug preparation for experimental group: The drug was dissolved in DMSO to prepare a 20 mmol/L stock solution; the stock solution was further diluted with DMSO to 2 mmol/L, which was serially 3-fold diluted to form an […]-concentration gradient, resulting in a 200× serial compound solution; 10 μL of the serial compound solution was taken and added to 190 μLμL of RPMI1640 medium to obtain a 10× serial compound solution; and 10 μL of the 10× compound solution was taken and added to 90 μL 96-well cell culture plate, with three replicates per grade. The concentration gradient of the compound in the 96-well cell culture plate was […], 1.524158 nM, 4.572474 nM, 13.717420 nM, 41.152260 nM, 123.456800 nM, 370.370400 nM, 1111.111000 nM, 3333.333000 nM, and 10000.000000 nM, with 100 μL per well, and the final concentration of DMSO was 0.5%.
The control group contained the same volume of solvent as the experimental group and was diluted with a complete medium, with 100 μL per well.
4. Incubation was carried out for 5 days in an incubator with 5% CO2 at 37° C.
5. After 5 days, 10 μL of an MTT solution (5 mg/mL) was added to each well, and the culture was continued for 4 h.
6. The culture was terminated, and the culture solution was carefully sucked out of the well.
7. 150 μL of dimethyl sulfoxide (DMSO) was added to each of the null wells in the experimental group and the control group; and after shaking at a medium speed for 10 s, the crystal was fully dissolved, and the optical absorbance value thereof was measured at a wavelength of 492 nm.

| IC50 [nM] | SMILES |
| --- | --- |
| 40 | C=C(F)C(=O)N1CCN(c2nc(OC[C@@]34CCCN3C[C@H](F)C4)nc3c(OC4CC4)c(-c4cccc5c4CC4CC54)c(Cl)cc23)C[C@@H]1CC#N (single isomer, unassigned) [Example 918] |
| 9.5 | C=CC(=O)N1CCN(c2nc(OC[C@@]34CCCN3C[C@H](F)C4)nc3c(F)c(-c4cccc5c4CC4CC54)ncc23)C[C@@H]1CC#N (single isomer, unassigned) [Example 877] |
| 231 | C=CC(=O)N1CCN(c2c(C#N)c(OC[C@@H]3CCCN3C)nc3cc(-c4cccc5c4CCCC5)c(Cl)cc23)C[C@@H]1CC#N [Example 622] |

Same assay, conditions: Homo sapiens, NCI-H358, 120 h, 5 days incubation, absorbance 492 nm

| IC50 [nM] | SMILES |
| --- | --- |
| 80 | C=C(F)C(=O)N1CC[C@@H]2[C@H]1CN2c1nc(OC[C@@H]2C[C@@H](F)CN2C)nc2c(F)c(-c3ccc(F)c4c3CCCC4)ncc12 [Example 28] |
| 1010 | C=CC(=O)N1CCN(c2nc(OC[C@@H]3CCCN3C)nc3c(F)c(N4CCCc5cc(F)ccc54)c(Cl)cc23)CC1 [Example 615, (S)-1-(4-(6-chloro-8-fluoro-7-(6 fluoro-3,4-dihydroquinoline-1(2H)-yl)-2-((1-methylpyrrolidin-2-yl)methoxy)quinazolin-4-yl)piperazin-1-yl)prop-2-en-1-one] |
| 140 | C=C(F)C(=O)N1CCN(c2nc(OC[C@@H]3CCCN3C)nc3c(F)c(-c4cccc5c4[C@@H]4C[C@@H]4C5)ncc23)C[C@@H]1CC#N [Example 59, 2-((S)-4-(8-fluoro-2-(((S)-1-methylpyrrolidin-2-yl)methoxy)-7-((1aR,6aR)-1,1a,6,6a-tetrahydrocyclopropa[a]inden-2-yl)pyridino[4,3-d]pyrimidin-4-yl)-1-(2-fluoroacryloyl)piperazin-2-yl)acetonitrile] |
| 3.2 | C=CC(=O)N1CCN(c2nc(OCC34CCCN3CCC4)nc3c(F)c(-c4cccc5c4[C@@H]4C[C@@H]4C5)ncc23)C[C@@H]1CC#N [Example 65] |
| 10 | C=CC(=O)N1CC[C@@H]2[C@H]1CN2c1nc(OC[C@@H]2CCCN2C)nc2c(F)c(-c3cccc4c3CCCC4)ncc12 [Example 9, 1-((1R,5R)-6-(8-fluoro-2-(((S)-1-methylpyrrolidin-2-yl)methoxy)-7-(5,6,7,8-tetrahydronaphthalen-1-yl)pyridino[4,3-d]pyrimidin-4-yl)-2,6-diazabicyclo[3.2.0]hept-2-yl)prop-2-en-1-one] |
| 5 | C=CC(=O)N1CCN(c2nc(OC[C@@H]3C[C@@H](F)CN3C)nc3c(F)c(-c4cccc5cccc(Cl)c45)ccc23)C[C@@H]1CC#N [Example 361] |
| 7 | C=CC(=O)N1CCN(c2nc(OCC34CCCN3CCC4)nc3c(F)c(-c4ccc(F)c5c4CCCC5)ncc23)C[C@@H]1CC#N [Example 21] |
| 72 | C=C(F)C(=O)N1CCN(c2nc(OC[C@@H]3CCCN3C)nc3cc(-c4cncc5cccc(Cl)c45)ccc23)C[C@@H]1CC#N [Example 127] |
| 3 | C=CC(=O)N1CC[C@@H]2[C@H]1CN2c1nc(OC[C@@]23CCCN2C[C@H](F)C3)nc2c(F)c(-c3cccc4c3CCCC4)ncc12 [Example 15] |
| 148 | C=CC(=O)N1CCN(c2nc(OC[C@@H]3CCCN3C)nc3c(F)c(-c4cccc5ccc(F)c(Cl)c45)c(F)cc23)C[C@@H]1CC#N [Example 431] |
| 10 | C=C(F)C(=O)N1CCN(c2nc(OCC34CCCN3C[C@H](F)C4)nc3cc(-c4cncc5c4CCCC5)ccc23)C[C@@H]1CC#N (stereo partly drawn) [Example 149] |
| 38 | C=CC(=O)N1CCN(c2nc(OC[C@@H]3C[C@@H](F)CN3C)nc3cc(-c4cccc5c4CCCC5)ccc23)C[C@@H]1CC#N [Example 112] |
| 6 | C=C(F)C(=O)N1CCN(c2nc(OCC34CCCN3C[C@H](F)C4)nc3cc(-c4cccc5ccc(F)c(Cl)c45)ccc23)C[C@@H]1CC#N (stereo partly drawn) [Example 100] |
| 49 | C=C(F)C(=O)N1CCN(c2nc(OC[C@@H]3CCCN3C)nc3c(OC4CC4)c(-c4cccc5ccc(F)c(Cl)c45)c(Cl)cc23)C[C@@H]1CC#N [Example 924] |
| 6.5 | C=CC(=O)N1CCN(c2nc(OC[C@@H]3CCCN3C)nc3cc(-c4cccc5ccc(F)c(Cl)c45)ccc23)C[C@@H]1CC#N [Example 93, 2-((S)-1-acryloyl-4-(7-(8-chloro-7-fluoronaphthalen-1-yl)-2-(((S)-1-methylpyrrolidin-2-yl)methoxy)quinazolin-4-yl)piperazin-2-yl)acetonitrile] |
| 35 | C=C(F)C(=O)N1CC[C@@H]2[C@H]1CN2c1nc(OC[C@@H]2CCCN2C)nc2c(F)c(-c3cncc4c3CCCC4)ncc12 [Example 42, 2-fluoro-1-(((1R,5R)-6-(8-fluoro-2-(((S)-1-methylpyrrolidin-2-yl)methoxy)-7]-(5,6,7,8-tetrahydroisoquinolin-4-yl)pyridino[4,3-d]pyrimidin-4-yl)-2,6-diazabicyclo[3.2.0]hept-2-yl)prop-2-en-1-one] |
| 40 | C=CC(=O)N1CC[C@H]2[C@H]1CN2c1nc(OCC23CCCN2CCC3)nc2cc(-c3cccc4ccc(F)c(Cl)c34)c(Cl)cc12 [Example 472, 1-((1R,5S)-6-(6-chloro-7-(8-chloro-7-fluoronaphthalen-1-yl)-2-((tetrahydro-1H-pyrrolizin-7a(5H)-yl)methoxy)quinazolin-4-yl)-2,6-diazabicyclo[3.2.0]hept-2-yl)prop-2-en-1-one] |
| 16 | C=C(F)C(=O)N1CCN(c2nc(OCC34CCCN3CCC4)nc3cc(-c4cncc5cccc(Cl)c45)ccc23)C[C@@H]1CC#N [Example 131, (S)-2-(4-(7-(5-chloroisoquinolin-4-yl)-2-((tetrahydro-1H-pyrrolizin-7a(5H)-yl)methoxy)quinazolin-4-yl)-1-(2-fluoroacryloyl)piperazin-2-yl)acetonitrile] |
| 1.5 | C=CC(=O)N1CCN(c2nc(OCC34CCCN3C[C@H](F)C4)nc3c(F)c(-c4cncc5cccc(Cl)c45)ccc23)C[C@@H]1CC#N (stereo partly drawn) [Example 164, 2-((2S)-1-acryloyl-4-(7-(5-chloroisoquinolin-4-yl)-8-fluoro-2-((((2R,7aS)-2-fluorotetrahydro-1H-pyrrolizin-7a(5H))-yl)methoxy)quinazolin-4-yl)piperazin-2-yl)acetonitrile] |
| 2 | C=CC(=O)N1CCN(c2nc(OCC34CCCN3CCC4)nc3c(F)c(-c4cncc5cccc(Cl)c45)ccc23)C[C@@H]1CC#N [Example 162, (S)-2-(1-acryloyl-4-(7-(5-chloroisoquinolin-4-yl)-8-fluoro-2-((tetrahydro-1H-pyrrolizin-7a(5H)-yl)methoxy)quinazolin-4-yl)piperazin-2-yl)acetonitrile] |
| 180 | C=C(F)C(=O)N1CCN(c2nc(OC[C@@H]3CCCN3C)nc3c(F)c(-c4cccc5c4SCCC5)ncc23)C[C@@H]1CC#N [Example 53, 2-((S)-4-(8-fluoro-2-(((S)-1-methylpyrrolidin-2-yl)methoxy)-7-(thiochroman-8-yl)pyridino[4,3-d]pyrimidin-4-yl)-1-(2-fluoroacryloyl)piperazin-2-yl)acetonitrile] |
| 70 | C=CC(=O)N1CCN(c2nc(OC[C@@H]3CCCN3C)nc3c(F)c(-c4ccc(F)c5c4SCCC5)ncc23)C[C@@H]1CC#N [Example 54, 2-((S)-1-acryloyl-4-(8-fluoro-7-(5-fluorothiochroman-8-yl)-2-(((S)-1-methylpyrrolidin-2-yl)methoxy)pyridino[4,3-d]pyrimidin-4-yl)piperazin-2-yl)acetonitrile] |
| 3 | C=CC(=O)N1CCN(c2nc(OC[C@@]34CCCN3C[C@H](F)C4)nc3c(F)c(-c4ccc(F)c5c4CCCC5)ncc23)C[C@@H]1CC#N [Example 23] |
| 80 | C=C(F)C(=O)N1CC[C@@H]2[C@H]1CN2c1nc(OC[C@@H]2C[C@@H](F)CN2C)nc2c(F)c(-c3cccc4c3CCCC4)ncc12 [Example 12] |
| 10 | C=CC(=O)N1CC[C@@H]2[C@H]1CN2c1nc(OC[C@@H]2CCCN2C)nc2c(F)c(-c3ccc(F)c4c3CCCC4)ncc12 [Example 25] |
| 15 | C=CC(=O)N1CCN(c2nc(OCC34CCCN3CCC4)nc3c(F)c(-c4cncc5c4CCCC5)ncc23)C[C@@H]1CC#N [Example 37, (S)-2-(1-acryloyl-4-(8-fluoro-2-((tetrahydro-1H-pyrrolizin-7a(5H)-yl)methoxy)-7-(5,6,7,8-tetrahydroisoquinolin-4-yl)pyridino[4,3-d]pyrimidin-4-yl)piperazin-2-yl)acetonitrile] |
| 5 | C=CC(=O)N1CCC2[C@H]1CN2c1nc(OCC23CCCN2CCC3)nc2c(F)c(-c3cccc4c3CCCC4)ccc12 (stereo partly drawn) [Example 372] |
